{"source": "patent EP2114888B1", "about": "“TRICYCLIC COMPOUNDS AND THEIR USE AS GLUCOCORTICOID RECEPTOR MODULATORS” (priority 2007, dated 2008)", "key": {"[1]": {"test": "Oral absorption profile in rats"}, "[2]": {"tested_on": "IFNγ", "test": "Ex vivo LPS-stimulated human whole blood, IFNγ production", "format": "cell-based", "conditions": "mean values", "protocol": "(§1) Venous blood from human donors was collected as 10 ml aliquots in tubes containing sodium heparin (BD Vacutainer from Becton Dickinson and Company, Franklin Lakes, NY). Blood was added to sterile polystyrene round bottom 96-well tissue culture plates (Corning Costar) at 100 µl/well, omitting the outside wells. Media (RPMI Medium 1640 with L-glutamine, Invitrogen Corporation, Carlsbad, CA) was added to the blood in 90 µl aliquots for a total volume of 190 µl. Outside wells were filled with 200 µl of media. Blood was placed in a humidified 37°C incubator with 5% CO2 while compounds were prepared (nearly 60 minutes).\n(§2) Compounds were prepared from 10 mM stock solutions in dimethylsulfoxide (DMSO, Sigma-Aldrich). […] Final DMSO and ethanol concentrations in the assay were 0.1 % and 1.5%. The samples were gently triturated twice to mix and replaced in the incubator. LPS stock (E. coli serotype 0111:B4, Sigma-Aldrich), stored in aliquots of 100 µg/ml in RPMI at -20°C, was diluted 1/50 in RPMI to make a working stock solution. After 60 minutes of incubation, 10 µl of the prepared LPS working stock was added to the blood to a final concentration of 100 ng/ml, omitting wells to be used as negative control. The samples were again gently triturated and the plates incubated overnight for 22 hours. Following incubation, the blood was centrifuged at 1500 x g for 5 minutes and the plasma removed to either freeze at -20°C or assay for cytokine release.\n(§3) IL-1β, IFNγ,IL-6, and TNFα protein levels were measured using Meso Scale assay kits (Meso Scale Discovery, Gaithersburg, MD). Reagents were allowed to come to room temperature. Meso Scale plates were blocked with 30 µl of human plasma/serum assay diluent with gentle shaking for 60 minutes at room temperature. Plates were washed 3x with wash buffer (PBS, Invitrogen Corporation, with 0.05% Tween-20, Sigma-Aldrich). Calibrators for standard curves were prepared in human plasma/serum assay diluent as a 1/5 serial dilution to achieve final concentrations ranging from 50000 pg/ml to 3.2 pg/ml. Samples and calibrators were added at 20 µl/well, then incubated at room temperature with gentle shaking for 90 minutes. Plates were again washed 3 times with wash buffer. Detection antibody was diluted in human plasma/serum antibody diluent to 1 µg/ml and added to the plate at 20 µl/well. Plates were incubated as before for 60 minutes and washed again. Read Buffer T (4x) was diluted 1:1 with mqH2O to 2 times concentration and 150 µl added to each well. Plates were analyzed on the SECTOR Imager 6000 (Meso Scale Discovery) to generate raw signal values.\n(§4) Individual values were compared to positive and negative controls (vehicle treated blood with LPS and vehicle treated blood without LPS, respectively) to generate % inhibition. Triplicate values were averaged for each donor. The values for two donors were averaged (only one donor was used for IL-1β) and graphed using 4-parameter fit curves in the GraFit 5.0.11 application."}, "[3]": {"tested_on": "IL-6", "test": "IL-1β-stimulated IL-6 production in A549 lung epithelial cells", "format": "cell-based, Human", "conditions": "Homo sapiens, A549", "protocol": "Human A549 lung epithelial cells (American Type Culture Collection, Rockville, MD) were cultured in Kaighn's F-12K medium with penicillin-streptomycin (10 U/mL) and 10% heat-inactivated fetal bovine serum (all from Invitrogen, Grand Island, NY). A549 cells were plated at a density of 30,000 cells/well in 96-well plates and incubated overnight at 37°C and with 5% CO2. The cells were serum-starved by replacing the growth medium with serum-free Kaighn's F-12K medium with penicillin-streptomycin (10 U/mL) and, again, incubating overnight at 37°C and with 5% CO2. On the third day, the medium was replaced with fresh serum-free medium and the cells were incubated with or without compound (vehicle was DMSO at 0.1 % maximum concentration) for approximately 1 hour and then stimulated with 1 ng/mL recombinant human IL-1β (R&D Systems, Minneapolis, MN) for 20 hours at 37°C and with 5% CO2. Cell supernatants were collected for determination of IL-6 levels using MSD (Meso Scale Discovery, Gaithersburg, MD) 96-well Single Spot plates as per the manufacturer's instructions. Plates were read with an MSD Sector Imager 6000. […] Percent inhibition for each compound concentration, relative to these controls, was calculated using Excel (Microsoft, Redmond, WA). IC50 values were generated using GraFit 5.0 data analysis software (Erithacus Software Ltd., Surrey, UK)."}, "[4]": {"tested_on": "TNFα", "test": "Ex vivo LPS-stimulated human whole blood, TNFα production", "format": "cell-based", "conditions": "mean values", "protocol": "as §1, §2, §3, §4"}, "[5]": {"test": "Caco-2 cell monolayer A→B permeability assay", "conditions": "human", "source_text": "The Caco-2 cell monolayer is an in vitro tissue culture model of the intestinal epithelium. These cells are of human colonic origin and become polarized, fully differentiated enterocytes in 2-3 weeks. Once differentiated, these cells have tight junctions and express various biochemical processes such as active efflux transporters including P-glycoprotein (P-gp). With this model, it is possible to determine the apparent permeability (Papp) of a compound across the polarized Caco-2 cell monolayer.\nAn A→B Assay is performed with Caco-2 cell monolayers to determine compound Papp from A chamber to B chamber. This Papp is representative of luminal (gut) to serosal (blood) compound transport across intestinal epithelium that may be seen during intestinal absorption."}, "[6]": {"test": "in vivo", "conditions": "rat, po"}, "[7]": {"test": "Oral absorption profile, time to Cmax in dogs", "conditions": "dog, in vivo"}, "[8]": {"test": "Cortical bone histomorphometry to determine bone formation rate (BFR)", "format": "in vivo, mice", "protocol": "Calcein incorporates into the bone mineral and allows measurement of bone formation rate. Calcein was dissolved in 2% sodium bicarbonate. During the tissue harvest, the left tibiae were excised and cleaned for cortical histomorphometry measurements. After all skin and muscle were removed, tibiae were placed in 70% ethanol (4°C) in the dark for a minimum of 24 hours.\nGround transverse sections were used for histomorphometric analysis of cortical bone. Bones were sectioned using a low-speed saw (Isomet, Buehler, Lake Bluff, IL) equipped with a diamond wafer blade. The end of each tibia was removed proximal to tibia-fibula synostosis and a […] cross-section was cut. Using a roughened glass plate and a cork, sections were ground to […] until transparent and all labels were distinguishable under a fluorescent microscope. […] Using the Osteomeasure Bone Analysis Program (Osteometrics, Inc., Decatur, Georgia), bone formation rate was calculated by tracing the 1^s1 and 3rd fluorescent labels and the inner and outer perimeter of the bone. Bone formation rate was calculated by the following equation: (Inter-label width/Label interval) * (Labeled perimeter/Bone perimeter). At least five samples were measured from each treatment group in each study."}}}
{"smiles": "Cc1ncccc1NC(=O)c1ccc2c(c1)CC[C@@H]1C[C@@](O)(C(F)(F)F)CC[C@@]21Cc1ccccc1", "note": "[Example 1, (4βS,7R,8αR)-4β-benzyl-7-hydroxy-N-(2-methylpyridin-3-yl)-7-(trifluoromethyl)-4β,5,6,7,8,8α,9,10-octahydrophenanthrene-2-carboxamide]", "values": [{"measurement": "bioavailability F", "setting": "[1]", "value": 17, "unit": "%"}, {"measurement": "Cmax", "setting": "[1]; oral", "value": 130, "unit": "ng/mL"}, {"measurement": "inhibition at 0.000457247 µM", "setting": "[2]; 0.457247 nM", "value": 16.9, "unit": "%"}, {"measurement": "inhibition at 0.00137174 µM", "setting": "[2]; 1.371742 nM", "value": 19.8, "unit": "%"}, {"measurement": "inhibition at 0.00411523 µM", "setting": "[2]; 4.115226 nM", "value": -3.18, "unit": "%"}, {"measurement": "inhibition at 0.0123457 µM", "setting": "[2]; 12.34568 nM", "value": 26.7, "unit": "%"}, {"measurement": "inhibition at 0.037037 µM", "setting": "[2]; 37.03704 nM", "value": 51, "unit": "%"}, {"measurement": "inhibition at 0.111111 µM", "setting": "[2]; 111.1111 nM", "value": 60.6, "unit": "%"}, {"measurement": "inhibition at 0.333333 µM", "setting": "[2]; 333.3333 nM", "value": 73.5, "unit": "%"}, {"measurement": "inhibition at 1 µM", "setting": "[2]; 1000 nM", "value": 78.7, "unit": "%"}, {"measurement": "inhibition", "setting": "[3]", "value": 86.1, "unit": "%"}, {"measurement": "inhibition at 0.000457247 µM", "setting": "[4]; 0.457247 nM", "value": 8.96, "unit": "%"}, {"measurement": "inhibition at 0.00137174 µM", "setting": "[4]; 1.371742 nM", "value": 7.87, "unit": "%"}, {"measurement": "inhibition at 0.00411523 µM", "setting": "[4]; 4.115226 nM", "value": -1.31, "unit": "%"}, {"measurement": "inhibition at 0.0123457 µM", "setting": "[4]; 12.34568 nM", "value": 9.42, "unit": "%"}, {"measurement": "inhibition at 0.037037 µM", "setting": "[4]; 37.03704 nM", "value": 18.7, "unit": "%"}, {"measurement": "inhibition at 0.111111 µM", "setting": "[4]; 111.1111 nM", "value": 27.4, "unit": "%"}, {"measurement": "inhibition at 0.333333 µM", "setting": "[4]; 333.3333 nM", "value": 36, "unit": "%"}, {"measurement": "inhibition at 1 µM", "setting": "[4]; 1000 nM", "value": 38.1, "unit": "%"}, {"measurement": "Papp A→B", "setting": "[5]", "value": 37.5, "unit": "×10⁻⁶ cm/s"}, {"measurement": "AUC", "setting": "[6]", "value": 460, "unit": "ng·h/mL"}, {"measurement": "Tmax", "setting": "[7]", "value": 1.5, "unit": "h"}, {"measurement": "Cortical bone formation rate (BFR) EAUC50", "setting": "[8]; data set 2", "value": 0.35}, {"measurement": "Cortical bone formation rate (BFR) EAUC80", "setting": "[8]; data set 2", "value": 1.76}, {"measurement": "Cortical bone formation rate (BFR) EAUC50 (AUC 0-4 hr)", "setting": "[8]; mice", "value": 270, "unit": "ng·h/mL"}, {"measurement": "Cortical bone formation rate (BFR) EAUC80 (AUC 0-4 hr)", "setting": "[8]; mice", "value": 1550, "unit": "ng·h/mL"}]}
